This is an account of results in patent US11285103B2, “Degradable hydrogel under physiological conditions” (priority 2015, dated 2022).

Numbered stars: 1 amine (or outer) side, 2 acyl side, 3 side chain; on linkers, the order of the positions; unused ones are H or OH. Square brackets hold non-standard residues; d marks the D form. Peptide text beside a SMILES is read from it. * marks the point of attachment. Fmoc = O=C(OCC1c2ccccc2-c2ccccc21)*; X1 = NCCc1cc(CN[*:1])ccc1C(=O)[*:2]

Series [1] in a line: Determination of half life in PBS (cleavage of biodegradable linkers from model peptides). In kind it is physicochemical. The note with it: linker X on N terminus of model peptide X-[…]; 1 mg/mL in PBS, 37° C.; read-out: t1/2 (h), cleavage of biodegradable linker (converted). Here is the method:
Peptides GIVEQAA-NH2 (SEQ ID NO: 3) and […] (SEQ ID NO: 2), two mimics of the N-terminus section of insulin A chain, were used as model peptides to determine the half lives of various biogradable linkers linked to the N-terminus of the peptides through an amide bond. The model peptides were prepared with Fmoc chemistry, cleaved by TFA and purified by preparative RP-HPLC.
A model peptide capped with a biodegradable linker was dissolved at 1 mg/mL concentration in PBS and the solution was incubated at 37° C. in a water bath. Samples were collected for analysis at different time points (e.g., 8 h, 16 h, 24 h, 48 h, 72 h, 96 h, 120 h). […] The cleavage of a biodegradable linker was quenched by lowering pH to 2 by addition of 0.1% TFA solution. RP-HPLC was used to monitor the cleavage reactions and the cleavage rates were quantitatively studied by measuring the peak areas of model peptides when they are capped with biodegradable linkers and when linkers are released. […]
The rate of cleavage was determined for the model peptides capped with respective biodegradable linkers. The concentrations of the model peptides capped with biodegradable linkers and the released model peptides were determined by their respective peak areas. […] The cleavage half life of a peptide capped with a biodegradable linker was calculated by using the equation and the slope derived from this plot. […]

A short description of series [2]: Determination of half life in serum (cleavage of biodegradable linkers from model peptide). It counts as in vitro ADME. The note with it: serum (100%); linker X on N terminus of model peptide X-G-dI-dV-dE-dQ-dA-dA; 100% serum, 37° C.; read-out: t1/2 (h), cleavage of biodegradable linker (converted). The method, then: Model peptides X-G-dI-dV-dE-dQ-dA-dA (SEQ ID NO:4) capped with various biodegradable linkers were used in the assay. D amino acids were used to prevent other enzymatic cleavage of the model peptides. The peptides were dissolved in 100% serum and incubated at 37° C. Samples were collected for analysis at different time points (e.g., 8 h, 16 h, 24 h, 48 h, 72 h, 96 h, and 120 h).
The rate of cleavage was determined for the model peptides capped with respective biodegradable linkers. The concentrations of the model peptides capped with biodegradable linkers and the released model peptides were determined by their respective peak areas. The first order dissociation rate constant of a model peptide capped with a biodegradable linker was determined by plotting the logarithm of [starting model peptide capped with the biodegradable linker]/[remaining model peptide capped with the biodegradable linker] at various time intervals. The cleavage half life of a peptide capped with a biodegradable linker was calculated by using the equation and the slope derived from this plot.

Another series deals with diabetic rats. Put plainly: Blood glucose change in streptozotocin-induced diabetic rats. It counts as in vivo, Wistar rats. The settings on record: 40 nmol/kg daily. Here is the method: 9-week-old male Wistar rats, average weight 240±10 g, were housed in polypropylene cages and maintained at constant temperature and humidity on a 12 hour light/dark cycle, and allowed access to food and water ad libitum. When diabetes was induced, rats were fasted for 48 hours and intraperitoneally injected with streptozotocin (60 mg/kg, dissolved in […] sodium citrate buffer, pH 4.5), then food was provided. Blood glucose was checked after three days. Animals with blood glucose above 250 mg/dl was considered diabetic, and the rats with blood glucose higher than 450 mg/dl were used in the experiment. Recombinant insulin (24 nmol/kg) was injected daily to maintain blood glucose no higher than 550 mg/dl.
The insulin hydrogels were prepared according to the methods in Examples 8 and 20, but the hydrogel used in this example was loaded only with insulin. The actual insulin content was calculated with the method in Example 18.
Rats showing hyperglycemia (400-450 mg/dl) were divided into 3 groups, each containing 8 rats. Rats in the first group were intraperitoneally injected saline (100 μL). Rats in the second group were intraperitoneal injected insulin detemir (40 nmol/kg) daily. Rats in the third group were Injected hydrogel (75 nmol/kg, calculated according to the actual amount of human insulin in the hydrogel). […]

In the case of `CC1NCc2cc(CN)ccc2C1=O` (stereo not drawn), in series [1], the half-life at 1 mg/mL was 264 h.
Turning to `CC[C@@H](C)[C@@H](NC(=O)CNC(=O)c1ccc(CNC(=O)OCC2c3ccccc3-c3ccccc32)cc1CCN)C(=O)N[C@@H](C(=O)N[C@H](CCC(=O)O)C(=O)N[C@H](CCC(N)=O)C(=O)N[C@H](C)C(=O)N[C@H](C)C(=O)O)C(C)C` (Fmoc-[X1]G[dI][dV][dE][dQ][dA][dA]-OH), the half-life in series [2] was 735 h.
For Insulin detemir, the blood glucose lowering entry in the series on diabetic rats is reported as “cannot effectively lower blood glucose”.
